Measured values from ChEMBL document CHEMBL1149795, “5,7-Dihydroxychromone-2-carboxylic acid and it's transition-metal (Mn and Zn) chelates as non-thiol radioprotective agents” (Eur J Med Chem, 2008).

What was measured:
[1] = test system: Mus musculus; assay: Radioprotective activity against gamma-irradiation in NMRI mouse assessed as survival at 1.0 mmol/kg, sc administered 24 hrs prior to irradiation measured after 30 days; format: functional; details: light or radiation study
[2] = test system: Mus musculus; assay: Radioprotective activity against gamma-irradiation in NMRI mouse assessed as survival at 0.5 mmol/kg, sc administered 24 hrs prior to irradiation measured after 30 days; format: functional; details: light or radiation study
[3] = Toxicity against sc dosed NMRI mouse; format: organism-based; details: in vivo
[4] = test system: Mus musculus; assay: Radioprotective activity against gamma-irradiation in NMRI mouse assessed as survival at 0.5 mmol/kg, sc administered 1 hr prior to irradiation measured after 30 days; format: functional; details: light or radiation study

SMILES | survival at 1000 µmol/kg [1] [%] | survival at 500 µmol/kg [2] [%] | LD50 [3] [mg/kg] | survival at 500 µmol/kg [4] [%]
O=C(O)c1cc(=O)c2c(O)cc(O)cc2o1 | 50 | 35 | > 1500 | 
NCCCNCCSP(=O)(O)O [AMIFOSTINE] |  |  | 609 | 81
